{"source": "patent US9845291B2", "about": "“Estrogen receptor modulators and uses thereof” (Genentech, Inc., priority 2014, dated 2017)", "target": "estrogen receptor alpha (ESR1) (Homo sapiens, UniProt P03372)", "sequence (P03372 whole entry)": "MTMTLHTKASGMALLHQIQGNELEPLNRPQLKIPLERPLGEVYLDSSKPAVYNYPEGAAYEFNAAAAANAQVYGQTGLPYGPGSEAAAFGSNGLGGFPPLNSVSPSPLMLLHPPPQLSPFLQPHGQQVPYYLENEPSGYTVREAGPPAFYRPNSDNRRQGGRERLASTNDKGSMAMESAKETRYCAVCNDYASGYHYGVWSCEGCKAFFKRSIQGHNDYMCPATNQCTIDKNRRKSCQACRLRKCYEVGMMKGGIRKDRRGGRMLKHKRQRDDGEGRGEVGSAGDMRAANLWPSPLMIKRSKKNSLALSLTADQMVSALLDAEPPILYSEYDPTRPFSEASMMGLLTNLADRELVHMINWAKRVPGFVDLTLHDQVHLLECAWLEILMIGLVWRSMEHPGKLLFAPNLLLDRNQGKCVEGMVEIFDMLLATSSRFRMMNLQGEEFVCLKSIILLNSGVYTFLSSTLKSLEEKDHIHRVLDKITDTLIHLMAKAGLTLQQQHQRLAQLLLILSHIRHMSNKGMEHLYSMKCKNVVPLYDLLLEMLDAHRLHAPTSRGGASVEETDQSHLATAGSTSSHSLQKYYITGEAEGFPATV", "experiment": "cell-based", "details": "for ER-alpha MCF7 HCS Sinf: MCF7 breast cancer cells, 4 hours, plateau of the maximal effect, DMSO and Fulvestrant define 0% and 100% changes in ESR1", "protocol": "Where more than one name is associated with a Formula I compound or intermediate, the chemical structure shall define the compound.\nCell plates were incubated at 37° C., for 4 hours. Fixation and permeabilization were carried out using a Biotek EL406 plate washer and dispenser as follows. […] Samples were incubated 30 minutes. Well contents was aspirated and 50 ul/well of Phosphate Buffered Saline (PBS) containing 0.5% w/v bovine serum albumen, 0.5% v/v Triton X-100 (Antibody Dilution Buffer) was added to each well. Samples were incubated for 30 minutes. Well contents were aspirated and washed 3 times with 100 ul/well of PBS. Immunofluorescence staining of estrogen receptor alpha (ESR1) was carried out using a Biotek EL406 plate washer and dispenser as follows. […] Samples were incubated for 2 hours at room temperature. Samples were washed 4 times with 100 ul/well of PBS. […] Samples were incubated for 2 hours at room temperature. Samples were washed 3 times with 100 ul/well of PBS using a Biotek EL406. Quantitative fluorescence imaging of ESR1 was carried out using a Cellomics Arrayscan V (Thermo). […] Channel 1 (DNA stain) was used to define the nuclear region (Circ). […] Data analysis was carried out using Genedata Screener Software, with DMSO and 5 nM Fulvestrant treated samples being used to define the 0% and 100% changes in ESR1. The “Robust Fit” method was used to define the inflexion point of curve (EC50) and the plateau of the maximal effect (Sin f)."}
{"molecule": "Cc1cc(-c2c(C)c3cc(O)ccc3n2Cc2ccc(OCCN3CC[C@@H](CF)C3)cc2)ccc1O", "note": "[Example 42, (R)-1-(4-(2-(3-(fluoromethyl)pyrrolidin-1-yl)ethoxy)benzyl)-2-(4-hydroxy-3-methylphenyl)-3-methyl-1H-indol-5-ol]", "values": [{"measurement": "EC50", "value": 0.025, "unit": "nM"}, {"measurement": "ER-alpha MCF7 HCS Sinf", "value": "−97.5", "unit": "%"}]}
{"molecule": "Cc1cc(-c2c(C)c3cc(O)ccc3n2Cc2ccc(OC[C@H](C)N3CC[C@@H](CF)C3)cc2)ccc1O", "note": "[Example 43, 1-[[4-[(2S)-2-[(3R)-3-(fluoromethyl)pyrrolidin-1-yl]propoxy]phenyl]methyl]-2-(4-hydroxy-3-methyl-phenyl)-3-methyl-indol-5-ol]", "values": [{"measurement": "EC50", "value": 0.0179, "unit": "nM"}, {"measurement": "ER-alpha MCF7 HCS Sinf", "value": "−96.0", "unit": "%"}]}
{"molecule": "Cc1c(-c2ccc(O)c(F)c2)n(Cc2ccc(OCCN3CC[C@@H](CF)C3)cc2)c2ccc(O)cc12", "note": "[Example 44, 2-(3-fluoro-4-hydroxy-phenyl)-1-[[4-[2-[(3R)-3-(fluoromethyl)pyrrolidin-1-yl]ethoxy]phenyl]methyl]-3-methyl-indol-5-ol]", "values": [{"measurement": "EC50", "value": 0.0278, "unit": "nM"}, {"measurement": "ER-alpha MCF7 HCS Sinf", "value": "−98.1", "unit": "%"}]}
{"molecule": "Cc1c(-c2ccc(O)c(F)c2)n(Cc2ccc(OC[C@H](C)N3CC[C@@H](CF)C3)cc2)c2ccc(O)cc12", "note": "[Example 45, 2-(3-fluoro-4-hydroxy-phenyl)-1-[[4-[(2S)-2-[(3R)-3-(fluoromethyl)pyrrolidin-1-yl]propoxy]phenyl]methyl]-3-methyl-indol-5-ol]", "values": [{"measurement": "EC50", "value": 0.00632, "unit": "nM"}, {"measurement": "ER-alpha MCF7 HCS Sinf", "value": "−97.5", "unit": "%"}]}
{"molecule": "Cc1c(-c2ccc(O)c(Cl)c2)n(Cc2ccc(OCCN3CC(CF)C3)cc2)c2ccc(O)cc12", "note": "[Example 46, 2-(3-chloro-4-hydroxy-phenyl)-1-[[4-[2-[3-(fluoromethyl)azetidin-1-yl]ethoxy]phenyl]methyl]-3-methyl-indol-5-ol]", "values": [{"measurement": "EC50", "value": 0.03, "unit": "nM"}, {"measurement": "ER-alpha MCF7 HCS Sinf", "value": "−97.8", "unit": "%"}]}
{"molecule": "Cc1c(-c2ccc(O)cc2Cl)n(Cc2ccc(OCCN3CC(CF)C3)cc2)c2ccc(O)cc12", "note": "[Example 47, 2-(2-chloro-4-hydroxy-phenyl)-1-[[4-[2-[3-(fluoromethyl)azetidin-1-yl]ethoxy]phenyl]methyl]-3-methyl-indol-5-ol]", "values": [{"measurement": "EC50", "value": 0.115, "unit": "nM"}, {"measurement": "ER-alpha MCF7 HCS Sinf", "value": "−94.1", "unit": "%"}]}
{"molecule": "Cc1c(-c2ccc(O)cc2)n(Cc2ccc(OCCN3CC(CF)C3)cc2)c2ccc(O)c(F)c12", "note": "[Example 48, 4-fluoro-1-[[4-[2-[3-(fluoromethyl)azetidin-1-yl]ethoxy]phenyl]methyl]-2-(4-hydroxyphenyl)-3-methyl-indol-5-ol]", "values": [{"measurement": "EC50", "value": 0.662, "unit": "nM"}, {"measurement": "ER-alpha MCF7 HCS Sinf", "value": "−92.8", "unit": "%"}]}
{"molecule": "Cc1c(-c2ccc(O)cc2)n(Cc2ccc(OCCN3CC(CF)C3)cc2)c2cc(F)c(O)cc12", "note": "[Example 49, 6-fluoro-1-(4-(2-(3-(fluoromethyl)azetidin-1-yl)ethoxy)benzyl)-2-(4-hydroxyphenyl)-3-methyl-1H-indol-5-ol]", "values": [{"measurement": "EC50", "value": 0.187, "unit": "nM"}, {"measurement": "ER-alpha MCF7 HCS Sinf", "value": "−95.6", "unit": "%"}]}
{"molecule": "Cc1c(-c2ccc(O)cc2Cl)n(Cc2ccc(OCCN3CC[C@@H](CF)C3)cc2)c2ccc(O)cc12", "note": "[Example 55, 2-(2-chloro-4-hydroxyphenyl)-1-(4-(2-((R)-3-(fluoromethyl)pyrrolidin-1-yl)ethoxy)benzyl)-3-methyl-1H-indol-5-ol]", "values": [{"measurement": "EC50", "value": 0.0199, "unit": "nM"}, {"measurement": "ER-alpha MCF7 HCS Sinf", "value": "−98.7", "unit": "%"}]}
{"molecule": "Cc1c(-c2ccc(O)cc2Cl)n(Cc2ccc(OC[C@H](C)N3CC[C@@H](CF)C3)cc2)c2ccc(O)cc12", "note": "[Example 56, 2-(2-chloro-4-hydroxyphenyl)-1-(4-((S)-2-((R)-3-(fluoromethyl)pyrrolidin-1-yl)propoxy)benzyl)-3-methyl-1H-indol-5-ol]", "values": [{"measurement": "EC50", "value": 0.0285, "unit": "nM"}, {"measurement": "ER-alpha MCF7 HCS Sinf", "value": "−95.6", "unit": "%"}]}
{"molecule": "Cc1cc(O)ccc1-c1c(C)c2cc(O)ccc2n1Cc1ccc(OCCN2CC(CF)C2)cc1", "note": "[Example 57, 1-[[4-[2-[3-(fluoromethyl)azetidin-1-yl]ethoxy]phenyl]methyl]-2-(4-hydroxy-2-methyl-phenyl)-3-methyl-indol-5-ol]", "values": [{"measurement": "EC50", "value": 0.0469, "unit": "nM"}, {"measurement": "ER-alpha MCF7 HCS Sinf", "value": "−93.4", "unit": "%"}]}
{"molecule": "Oc1cccc([C@H]2Sc3c(ccc(O)c3F)O[C@H]2c2ccc(OCCN3CC(CF)C3)cc2)c1", "note": "[Example 58, (2S,3R)-5-fluoro-2-(4-(2-(3-(fluoromethyl)azetidin-1-yl)ethoxy)phenyl)-3-(3-hydroxyphenyl)-2,3-dihydrobenzo[b][1,4]oxathiin-6-ol]", "values": [{"measurement": "EC50", "value": 0.026, "unit": "nM"}, {"measurement": "ER-alpha MCF7 HCS Sinf", "value": "−99.8", "unit": "%"}]}
{"molecule": "Oc1cccc([C@@H]2Sc3c(ccc(O)c3F)O[C@@H]2c2ccc(OCCN3CC(CF)C3)cc2)c1", "note": "[Example 60, (2R,3S)-5-fluoro-2-(4-(2-(3-(fluoromethyl)azetidin-1-yl)ethoxy)phenyl)-3-(3-hydroxyphenyl)-2,3-dihydrobenzo[b][1,4]oxathiin-6-ol]", "values": [{"measurement": "EC50", "value": 15.8, "unit": "nM"}, {"measurement": "ER-alpha MCF7 HCS Sinf", "value": "−91.9", "unit": "%"}]}
{"molecule": "C[C@@H](COc1ccc(Oc2c(-c3ccc(S(C)(=O)=O)cc3)ccc3cc(O)ccc23)cc1)N1CC[C@@H](CF)C1", "note": "[Example 66, 5-[4-[(2S)-2-[(3R)-3-(fluoromethyl)pyrrolidin-1-yl]propoxy]phenoxy]-6-(4-methylsulfonylphenyl) naphthalen-2-ol]", "values": [{"measurement": "EC50", "value": 0.006, "unit": "nM"}, {"measurement": "ER-alpha MCF7 HCS Sinf", "value": "−93.4", "unit": "%"}]}
{"molecule": "CS(=O)(=O)c1ccc(-c2ccc3cc(O)ccc3c2C(=O)c2ccc(OCCN3CC[C@@H](CF)C3)cc2)cc1", "note": "[Example 67, [4-[2-[(3R)-3-(fluoromethyl)pyrrolidin-1-yl]ethoxy]phenyl]-[6-hydroxy-2-(4-methylsulfonylphenyl)-1-naphthyl]methanone]", "values": [{"measurement": "EC50", "value": 0.414, "unit": "nM"}, {"measurement": "ER-alpha MCF7 HCS Sinf", "value": "−97.6", "unit": "%"}]}
{"molecule": "O=C(c1ccc(OCCN2CC(CF)C2)c(F)c1)c1c(-c2ccccc2Cl)nsc1-c1ccc(O)cc1", "note": "[Example 72, [3-(2-Chloro-phenyl)-5-(4-hydroxy-phenyl)-isothiazol-4-yl]-{3-fluoro-4-[2-(3-fluoromethyl-azetidin-1-yl)-ethoxy]-phenyl}-methanone]", "values": [{"measurement": "EC50", "value": 0.0159, "unit": "nM"}, {"measurement": "ER-alpha MCF7 HCS Sinf", "value": "−99.0", "unit": "%"}]}
{"molecule": "O=C(c1ccc(OCCN2CC[C@@H](CF)C2)c(F)c1)c1c(-c2ccccc2Cl)noc1-c1ccc(O)cc1", "note": "[Example 73, [3-(2-chlorophenyl)-5-(4-hydroxyphenyl)isoxazol-4-yl]-[3-fluoro-4-[2-[(3R)-3-(fluoromethyl)pyrrolidin-1-yl]ethoxy]phenyl]methanone]", "values": [{"measurement": "EC50", "value": 0.123, "unit": "nM"}, {"measurement": "ER-alpha MCF7 HCS Sinf", "value": "−97.6", "unit": "%"}]}
{"molecule": "Oc1ccc2c(c1)C1=C(c3cc(O)ccc3OCC1)[C@H](c1ccc(OCCN3CC(CF)C3)cc1)O2", "note": "[Example 74, (S)-8-(4-(2-(3-(fluoromethyl)azetidin-1-yl)ethoxy)phenyl)-1,8-dihydro-2H-benzo[2,3]oxepino[4,5-c]chromene-6,12-diol]", "values": [{"measurement": "EC50", "value": 0.19, "unit": "nM"}, {"measurement": "ER-alpha MCF7 HCS Sinf", "value": "−93.3", "unit": "%"}]}
{"molecule": "Oc1ccc2c(c1)C1=C(c3cc(O)ccc3OCC1)[C@@H](c1ccc(OCCN3CC(CF)C3)cc1)O2", "note": "[Example 75, (R)-8-(4-(2-(3-(fluoromethyl)azetidin-1-yl)ethoxy)phenyl)-1,8-dihydro-2H-benzo[2,3]oxepino[4,5-c]chromene-6,12-diol]", "values": [{"measurement": "EC50", "value": 3.2, "unit": "nM"}, {"measurement": "ER-alpha MCF7 HCS Sinf", "value": "−99.7", "unit": "%"}]}
{"molecule": "C[C@@H](COc1ccc(C(=O)c2c(-c3ccccc3Cl)noc2-c2ccc(O)cc2)cc1F)N1CC[C@@H](CF)C1", "note": "[Example 76, [3-(2-chlorophenyl)-5-(4-hydroxyphenyl)isoxazol-4-yl]-[3-fluoro-4-[(2S)-2-[(3R)-3-(fluoromethyl)pyrrolidin-1-yl]propoxy]phenyl]methanone]", "values": [{"measurement": "EC50", "value": 0.091, "unit": "nM"}, {"measurement": "ER-alpha MCF7 HCS Sinf", "value": "−101", "unit": "%"}]}
